Measurements reported in patent US8916702B2 (priority 2012, dated 2014).
pEC50: −log10 of the molar value. Where two headings read alike, the source gives them in different places.

Test system: HCV pseudoparticles (genotype 1a HCV E1 and E2 envelope, H77C isolate)
Assay: microbe, parasite or virus in culture
Type: cell-based
Details: Hepatitis C virus
[1] = Huh-7, 48 h, read-out: Activity (EC50 class), HCV pseudoparticles, Huh7 cells, luciferase 2 days after infection, average of duplicates
[2] = Huh-7, 48 h, read-out: Activity (EC50 class), HCV pseudoparticle infection of Huh7 cells, luciferase 2 days after infection, EC50 expressed as class A/B
[3] = Huh-7, read-out: Activity (EC50 class), HCV pseudoparticles (genotype 1a, H77C) in Huh7 cells, EC50 expressed as class A/B
[4] = Huh-7, 48 h, HCV pseudoparticles (genotype 1a, H77C) in Huh7 cells, average of duplicate, luciferase 2 days after infection
[5] = Huh-7, 48 h, HCV pseudoparticle infection of Huh7 cells, luciferase 2 days after infection, average of duplicates

CC(C)(CNC(=O)C(=O)Nc1ccc(C#N)cc1)CNC(=O)c1ccc(Nc2nc(NC3(c4ccc(Cl)cc4)CC3)nc(OCc3ccccc3F)n2)cc1 [Compound 3853]
pEC50 [1]: 8.00 to 11.00

COC(=O)[C@H](CCNC(=O)C(=O)Nc1cnn(C)c1)NC(=O)c1ccc(Nc2nc(NC3(c4ccc(Cl)cc4)CC3)nc(OCC(F)(F)F)n2)cc1 [Compound 1226]
pEC50 [2]: 8.00 to 11.00

COC(=O)[C@H](CNC(=O)C(=O)Nc1cccc(-c2c[nH]cn2)c1)NC(=O)c1ccc(Nc2nc(NC3(c4ccc(Cl)cc4)CC3)nc(OCC(F)(F)F)n2)cc1 [Compound 3732]
pEC50 [1]: 8.00 to 11.00

COc1ccc(NC(=O)C(=O)NCC(C)(C)CNC(=O)c2ccc(Nc3nc(NC4(c5ccc(Cl)cc5)CC4)nc(OCC(F)(F)F)n3)cc2)c(OC)c1 [Compound 3067]
pEC50 [3]: 8.00 to 11.00

CC(C)(CNC(=O)C(N)=O)CNC(=O)c1ccc(Nc2nc(NC3(c4ccc(Cl)cc4)CC3)nc(OCC(F)(F)F)n2)cc1 [Compound 1552, N^1-(3-(4-((4-((1-(4-chlorophenyl)cyclopropyl)amino)-6-(2,2,2-trifluoroethoxy)-1,3,5-triazin-2-yl)amino)benzamido)-2,2-dimethylpropyl)oxalamide]
pEC50 [2]: 8.00 to 11.00

COC(=O)/C(CCNC(=O)C(=O)Nc1ccc(-n2nnnc2C)cc1)=N\C(=O)c1ccc(Nc2nc(NC3(c4ccc(Cl)cc4)CC3)nc(OCC(F)(F)F)n2)cc1 [Compound 3135]
pEC50 [4]: 8.43
pEC50 [3]: 8.00 to 11.00

COC(=O)[C@H](CCNC(=O)C(=O)NCC1CCCc2ccccc21)NC(=O)c1ccc(Nc2nc(NC3(c4ccc(Cl)cc4)CC3)nc(OCC(F)(F)F)n2)cc1 (stereo partly drawn) [Compound 1322]
pEC50 [2]: 8.00 to 11.00

O=C(NCC[C@H](NC(=O)c1ccc(Nc2nc(NC3(c4ccc(Cl)cc4)CC3)nc(OCC(F)(F)F)n2)cc1)C(=O)O)C(=O)NCc1cccc(F)c1 [Compound 1178]
pEC50 [2]: 8.00 to 11.00

CCOCCOc1ccc(NC(=O)C(=O)NC[C@H](NC(=O)c2ccc(Nc3nc(NC4(c5ccc(Cl)cc5)CC4)nc(OCC(F)(F)F)n3)cc2)C(=O)O)cc1 [Compound 3277]
pEC50 [3]: 8.00 to 11.00

Cc1cc(C)n(CC2(CNC(=O)C(=O)NCC[C@H](NC(=O)c3ccc(Nc4nc(NC5(c6ccc(Cl)cc6)CC5)nc(OCC(F)(F)F)n4)cc3)C(=O)O)CC2)n1 [Compound 1427]
pEC50 [2]: 8.00 to 11.00

CC(C)(CNC(=O)c1ccc(Nc2nc(NC3(c4ccc(Cl)cc4)CC3)nc(OCC(F)(F)F)n2)cc1)NC(=O)C(=O)Nc1ccc(F)cc1F [Compound 3438]
pEC50 [3]: 8.00 to 11.00

O=C(NCC[C@H](NC(=O)c1ccc(Nc2nc(NC3(c4ccc(Cl)cc4)CC3)nc(OCC(F)(F)F)n2)cc1)C(=O)O)C(=O)Nc1ccc(N2CCOCC2)nc1 [Compound 3628]
pEC50 [1]: 8.00 to 11.00

Cc1cc(F)ccc1NC(=O)C(=O)NCC(C)(C)CNC(=O)c1ccc(Nc2nc(NC3(c4ccc(Cl)cc4)CC3)nc(OCC(F)(F)F)n2)cc1 [Compound 3061]
pEC50 [3]: 8.00 to 11.00

CC(C)(CNC(=O)C(=O)Nc1ccc(C(=O)N2CCCCC2)cc1)CNC(=O)c1ccc(Nc2nc(NC3(c4ccc(Cl)cc4)CC3)nc(OCC(F)(F)F)n2)cc1 [Compound 1568]
pEC50 [2]: 8.00 to 11.00

O=C(NCC[C@H](NC(=O)c1ccc(Nc2nc(NC3(c4ccc(Cl)cc4)CC3)nc(OCC(F)(F)F)n2)cc1)C(=O)O)C(=O)Nc1ccc(OCCN2CCCCC2)nc1 [Compound 3661]
pEC50 [1]: 8.00 to 11.00

Cc1ccc(NC(=O)C(=O)NCC(C)(C)CNC(=O)c2ccc(Nc3nc(NC4(c5ccc(Cl)cc5)CC4)nc(OCC(F)(F)F)n3)cc2)cc1Cl [Compound 1541]
pEC50 [2]: 8.00 to 11.00

CN(C(=O)C(=O)NCC(C)(C)CNC(=O)c1ccc(Nc2nc(NC3(c4ccc(Cl)cc4)CC3)nc(OCC(F)(F)F)n2)cc1)c1cccc(F)c1 [Compound 1578]
pEC50 [2]: 8.00 to 11.00

Cc1nnc(-c2ccc(NC(=O)C(=O)NCC(C)(C)CNC(=O)c3ccc(Nc4nc(NC5(c6ccc(Cl)cc6)CC5)nc(OCC(F)(F)F)n4)cc3)cc2)[nH]1 [Compound 3674]
pEC50 (Huh-7, 48 h, HCV pseudoparticles, Huh7 cells, luciferase 2 days after infection, average of duplicates): 9.82
pEC50 [1]: 8.00 to 11.00

COC(=O)[C@H](CNC(=O)C(=O)Nc1ccc(OCCN2CCCCC2)nc1)NC(=O)c1ccc(Nc2nc(NC3(c4ccc(Cl)cc4)CC3)nc(OCC(F)(F)F)n2)cc1 [Compound 3736]
pEC50 [1]: 8.00 to 11.00

CNC(=O)C(=O)NCC(NC(=O)c1ccc(Nc2nc(NC3(c4ccc(Cl)cc4)CC3)nc(OCC(F)(F)F)n2)cc1)C(=O)O (stereo in doubt) [Compound 1006, (S)-2-(4-(4-(1-(4-chlorophenyl)cyclopropylamino)-6-(2,2,2-trifluoroethoxy)-1,3,5-triazin-2-ylamino)benzamido)-3-(2-(methylamino)-2-oxoacetamido)propanoic acid]
pEC50 [5]: 9.16
pEC50 [2]: 8.00 to 11.00

CC(C)[C@@H]1CC[C@@H](C)C[C@H]1NC(=O)C(=O)NC[C@H](NC(=O)c1ccc(Nc2nc(NC3(c4ccc(Cl)cc4)CC3)nc(OCC(F)(F)F)n2)cc1)C(=O)O [Compound 1095]
pEC50 [2]: 8.00 to 11.00

O=C(NC[C@H](NC(=O)c1ccc(Nc2nc(NC3(c4ccc(Cl)cc4)CC3)nc(OCC(F)(F)F)n2)cc1)C(=O)O)C(=O)NC1CCCCC1 [Compound 1174]
pEC50 [2]: 8.00 to 11.00

COC(=O)/C(CCNC(=O)C(=O)Nc1ccc(C)nc1)=N\C(=O)c1ccc(Nc2nc(NC3(c4ccc(Cl)cc4)CC3)nc(OCC(F)(F)F)n2)cc1 [Compound 3590]
pEC50 [4]: 9.80
pEC50 [3]: 8.00 to 11.00

O=C(NC/C(=N/C(=O)c1ccc(Nc2nc(NC3(c4ccc(Cl)cc4)CC3)nc(OCC(F)(F)F)n2)cc1)C(=O)O)C(=O)Nc1ccc(-n2cccn2)cc1 [Compound 3173]
pEC50 [3]: 8.00 to 11.00

O=C(NC/C(=N/C(=O)c1ccc(Nc2nc(NC3(c4ccc(Cl)cc4)CC3)nc(OCC(F)(F)F)n2)cc1)C(=O)O)C(=O)Nc1ccc(C(=O)c2ccccc2)cc1 [Compound 3152]
pEC50 [3]: 8.00 to 11.00

COc1cccc(NC(=O)C(=O)NCC(C)(C)CNC(=O)c2ccc(Nc3nc(NC4(c5ccc(Cl)cc5)CC4)nc(OCC(F)(F)F)n3)cc2)n1 [Compound 3252]
pEC50 [3]: 8.00 to 11.00

O=C(NCC[C@H](NC(=O)c1ccc(Nc2nc(NC3(c4ccc(Cl)cc4)CC3)nc(OCC(F)(F)F)n2)cc1)C(=O)O)C(=O)NCC1CCCOC1 (stereo partly drawn) [Compound 1208]
pEC50 [5]: 9.68
pEC50 [2]: 8.00 to 11.00

COC(=O)[C@H](CCNC(=O)C(=O)Nc1ccc(F)c(F)c1)NC(=O)c1ccc(Nc2nc(NC3(c4ccc(Cl)cc4)CC3)nc(OCC(F)(F)F)n2)cc1 [Compound 1505]
pEC50 [2]: 8.00 to 11.00

COC(=O)[C@H](CCNC(=O)C(=O)Nc1cccc(OC)c1)NC(=O)c1ccc(Nc2nc(NC3(c4ccc(Cl)cc4)CC3)nc(OCC(F)(F)F)n2)cc1 [Compound 1228]
pEC50 [2]: 8.00 to 11.00

COc1cccc(NC(=O)C(=O)NCC[C@H](NC(=O)c2ccc(Nc3nc(NC4(c5ccc(Cl)cc5)CC4)nc(OCC(F)(F)F)n3)cc2)C(=O)O)c1 [Compound 1270]
pEC50 [5]: 9.89
pEC50 [2]: 8.00 to 11.00

COC(=O)[C@H](CNC(=O)C(=O)Nc1ccc(N2CCN(C(C)=O)CC2)cc1)NC(=O)c1ccc(Nc2nc(NC3(c4ccc(Cl)cc4)CC3)nc(OCC(F)(F)F)n2)cc1 [Compound 3186]
pEC50 [4]: 9.15
pEC50 [3]: 8.00 to 11.00

COC(=O)[C@H](CNC(=O)C(=O)NC1CCCCCCC1)NC(=O)c1ccc(Nc2nc(NC3(c4ccc(Cl)cc4)CC3)nc(OCC(F)(F)F)n2)cc1 [Compound 1068]
pEC50 [2]: 8.00 to 11.00

O=C(NC[C@H](NC(=O)c1ccc(Nc2nc(NC3(c4ccc(Cl)cc4)CC3)nc(OCC(F)(F)F)n2)cc1)C(=O)O)C(=O)NC1CCCC(O)C1 (stereo partly drawn) [Compound 1086]
pEC50 [2]: 8.00 to 11.00

O=C(NCC[C@H](NC(=O)c1ccc(Nc2nc(NC3(c4ccc(Cl)cc4)CC3)nc(OCC(F)(F)F)n2)cc1)C(=O)O)C(=O)NCC1(C(=O)O)CC1 [Compound 1447]
pEC50 [5]: 7.01
pEC50 [2]: 6.00 to 8.00
